We go through one compound from patent US20230190870A1, “Method for Treating Lysosomal Storage Diseases with Histatin Peptides” (THE BOARD OF TRUSTEES OF THE UNIVERSITY OF ILLINOIS, priority 2020, published 2023).

In one data set the target is TMEM97 (Homo sapiens, UniProt Q5BJF2). As to the kind of experiment: Co-immunoprecipitation / western blot in HCE cells. Details: endogenous in cells; host or cells: HCE cells. Conditions: 20 μM Hst1 for 6 hours, IP TMEM97 antibody. The format is binding. The procedure: Immunoprecipitation/Western Blot Analysis. The day before, HCE cells were plated at the concentration of 5×10^6 cells/well in a 100 mm dish and were treated with 20 μM of Hst1 for 6 hours. Cells were harvested with lysis buffer (1% NP40, 137 mM sodium chloride, 20 mM Tris [pH 8.0], and 10% glycerol) and the lysates were incubated with 5 μL of a validated rabbit polyclonal anti-TMEM97 antibody (Novus Bio.; Littleton, Colo.) overnight at 4° C. The lysates were incubated with 30 μL of a suspension of protein A/G (Santa Cruz Biotechnology; Dallas, Tex.) for 2 hours at 4° C. with gentle shaking. After centrifugation for 5 minutes, pellets were washed three times and resuspended in 50 μL of 2×NUPAGE® LDS sample buffer (Invitrogen; Carlsbad, Calif.) and boiled for 10 minutes.
For detecting Hst1 bound to TMEM97 protein, the lysates were subjected to electrophoresis on 12% NUPAGE® Bis-Tris gels (Invitrogen; Carlsbad, Calif.), followed by transfer to nitrocellulose membranes (Amersham Protran, GE Healthcare; Pittsburgh, Pa.). Membranes were then blocked with Tris-buffered saline containing 3% nonfat dry milk for 1 hour and incubated with rabbit primary antibody against Hst1 (Mybiosource; San Diego, Calif.) (1:1000) overnight at 4° C. […]
(A western blot detects proteins with antibodies after separation by electrophoresis.)

A further data set relates to NPC1 KD cells. As to the kind of experiment: Filipin staining of cholesterol in NPC1 knockdown cells. The format is cell-based. Conditions: 20 μM or 50 μM. The source says: Cholesterol. […] Filipin staining, the generally accepted tool for detection of cholesterol deposits in NPC cells (Vanier, et al. (2003) Clin. Genet. 64:269-81), was used to visualize cholesterol in control and NPC1 KD cells. This analysis indicated increased clustering and collection of filipin-stained cholesterol in NPC1 KD cells, consistent with the NPC1 phenotype.

Data set [1] relates to human corneal epithelial (HCE) cells. As to the kind of experiment: Boyden chamber cell migration assay. The data set is classed as cell-based. The protocol: Transfection/Knock-Down of TMEM97. Sub-confluent monolayers of HCE cells in grown in 35-mm six-well plates were transfected with reaction mixtures composed of 100 pmol of small interfering RNA (siRNA) to TMEM97 (Santa Cruz Biotechnology; Dallas, Tex.) for 48 hours and 5 μL of transfection reagent sold under the tradename LIPOFECTAMINE® 2000 (Invitrogen; Carlsbad, Calif.) in culture medium sold under the tradename OPTI-MEMO media (Gibco Life Technologies; Grand Island, N.Y.). Complexes were incubated for 20 minutes at 24° C. and then added to cells at 37° C. Incubation was continued for 24 to 48 hours at 37° C. in 5% CO2. Knock-down (KD) of TMEM97 was confirmed by western blot analysis using a rabbit anti-TMEM97 antibody (Novus Bio.; Littleton, Colo.).
Cell Migration Assay. HCE migration assays were performed in a 48-well micro-chemotaxis chamber (Neuro Probe, Inc.; Cabin John, Md.), following the manufacturer's instructions and following a modification of prior reports. Polyester membranes (Neuro Probe, Inc.; Gaithersburg, Md.) with 12 μm pores were used. Cells were incubated with Hst1 for 6 hours, harvested using Versene (Life Technologies, Corp.; Grand Island, N.Y.), resuspended in RPMI-1640 medium (Life Technologies, Corp.; Grand Island, N.Y.) containing 0.5% FBS. The bottom chamber was loaded with RPMI-1640 media containing 2% FBS, and the filter was laid over the media. […]

Data set [2] is described as follows: Circular dichroism secondary structure analysis (DichroWeb). The data set is classed as physicochemical. The procedure: Circular Dichroism (CD). CD analysis was performed on a Jasco 815 CD spectrometer at room temperature. TMEM97 (108-176) and Hst1 full-length peptides were prepared as 10 mM stock in 25% DMSO and water, respectively, and diluted to 0.15 mg/mL final concentration in 10 mM […] buffer. A total of 400 μL of each sample was added into a 1 mm quartz sample cell, and CD spectra were recorded from 260 nm to 190 nm wavelength. Data points were measure in 0.5 nm wavelength step at a scanning speed of 100 nm/minute. A total of five spectra were acquired for each sample and averaged. […] buffer without peptide was used as a control curve, which was subsequently subtracted from the CD spectra of peptide samples. The resulting buffer control subtracted CD intensity row data in millidegrees were submitted to DichroWeb and fitted with multiple embedded models and converted to mean residue ellipticity.
Subsequently, the hypothesis that interaction between Hst1 and TMEM97 could affect the structure of each protein was tested. Also, the secondary structure of Hst1 and TMEM97 was tested in solution using CD measurements. It was noted that Hst1 alone is mostly disordered (over 50%) with some degree of β-strand, while TMEM97 (108-176) contains some α-helical and β-strand regions with ˜34% disordered regions. According to CD spectra comparison, there seemed to be more secondary structures formed upon Hst1 binding to TMEM97 (108-176).

Where [3] appears, read: CD, fraction of secondary structure.

“Also recorded” adds a separate entry of the source. Square brackets hold non-standard residues; d marks the D form. Peptide text beside a SMILES is read from it. pS = N[C@@H](COP(=O)(O)O)C(=O)O

Sequence of TMEM97 (Q5BJF2 whole entry): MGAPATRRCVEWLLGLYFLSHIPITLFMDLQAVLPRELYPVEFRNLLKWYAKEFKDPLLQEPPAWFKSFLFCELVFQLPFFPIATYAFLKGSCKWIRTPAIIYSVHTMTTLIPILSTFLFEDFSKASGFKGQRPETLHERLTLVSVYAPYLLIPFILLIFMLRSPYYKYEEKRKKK

`CC(C)C[C@H](NC(=O)[C@H](Cc1ccc(O)cc1)NC(=O)[C@H](CC(N)=O)NC(=O)[C@H](CO)NC(=O)CNC(=O)[C@H](Cc1ccc(O)cc1)NC(=O)[C@H](CC(=O)O)NC(=O)CNC(=O)[C@H](Cc1ccc(O)cc1)NC(=O)[C@H](Cc1ccccc1)NC(=O)[C@@H]1CCCN1C(=O)[C@H](Cc1ccccc1)NC(=O)[C@H](CCC(=O)O)NC(=O)[C@H](CCCNC(=N)N)NC(=O)[C@H](Cc1c[nH]cn1)NC(=O)[C@H](CO)NC(=O)[C@H](Cc1c[nH]cn1)NC(=O)[C@H](Cc1c[nH]cn1)NC(=O)[C@H](CCCCN)NC(=O)[C@H](CCC(=O)O)NC(=O)[C@H](Cc1c[nH]cn1)NC(=O)[C@H](Cc1ccccc1)NC(=O)[C@H](CCCCN)NC(=O)[C@H](CCCNC(=N)N)NC(=O)[C@H](CCCNC(=N)N)NC(=O)[C@H](Cc1ccc(O)cc1)NC(=O)CNC(=O)[C@H](Cc1c[nH]cn1)NC(=O)[C@H](Cc1c[nH]cn1)NC(=O)[C@H](CCCNC(=N)N)NC(=O)[C@H](CCCCN)NC(=O)[C@H](CCC(=O)O)NC(=O)[C@H](Cc1c[nH]cn1)NC(=O)[C@H](COP(=O)(O)O)NC(=O)[C@@H](N)CC(=O)O)C(=O)N[C@@H](Cc1ccc(O)cc1)C(=O)N[C@@H](CC(=O)O)C(=O)N[C@@H](CC(N)=O)C(=O)O` [Hst1] (H-D[pS]HEKRHHGYRRKFHEKHHSHREFPFYGDYGSNYLYDN-OH; N-terminus and C-terminus assumed): the “co-precipitation with TMEM97” value on TMEM97 is “co-precipitated with TMEM97”. For the same compound, in the data set on NPC1 KD cells, the “cholesterol accumulation (Filipin staining)” value was “reduced cholesterol accumulation”. Besides, the “transmigration response in TMEM97 KD cells” value in data set [1] (siRNA knock-down of TMEM97) is listed as “inhibits; also recorded: abolished this response”. In data set [1] (toward 2% FBS stimulus), the cellular transmigration entry is given as “dose-dependent increase in cellular transmigration”. Moreover, in data set [2] (CD in solution), the disordered regions entry is “over 50%”. In data set [2] (setting [3]), the Helix came to 0.02, the Strand was determined as 0.29, the Turns stood at 0.15 and the Unordered is reported as 0.54.
